Experimental data reported in patent US20220175717A1, “PHENPROCOUMON TTS” (LTS LOHMANN THERAPIE-SYSTEME AG, priority 2019, published 2022).

What was measured:
[1] = Saturation concentration Cs of phenprocoumon in polymer matrices (sandwich method of Liu); type: physicochemical; conditions: for Cs of phenprocoumon: 7 days at room temperature
Description: The saturation concentration Cs of phenprocoumon was determined in various polymer matrices according to the method of Liu (Liu, P., Gargiulo, P., Wong, J., and Novartis (1997). A Novel Method for Measuring Solubility of a Drug in an Adhesive. Pharmaceutical Research 14, p. 317). In this method, known among experts as the “sandwich” method, the saturation concentration is determined as follows: A laminate is built up with the following sequence of layers: protective film—donor layer with active substance (dissolved and undissolved)—active-substance-permeable membrane—acceptor layer without active substance—protective film. The two protective films consist of identical material; the matrix material of the donor layer and acceptor layer is also identical. The donor layer is prepared by dissolving the active substance in a solution of the polymer in organic solvent. In this process, the concentration of the active substance must be chosen to be high enough that an undissolved residue is visible in the polymer matrix, so that the saturation concentration Cs in the donor layer is safely exceeded. This solution is spread on the protective film and the process solvent is evaporated. Then, the adhesive surface of the donor layer is covered with the membrane. The membrane used is a dialysis tube made of regenerated cellulose (ZelluTrans, from Roth, 46 mm flat width), which has been cut open lengthwise. The acceptor layer is produced analogously to the donor layer without active substance and is applied to the other side of the membrane. The laminates produced in this way are then stored at room temperature for 7 days, during which diffusion of the active substance through the membrane into the acceptor layer occurs. Subsequently, the active substance concentration in the donor layer is determined. For this purpose, aliquots of approx. 1 cm^2 are punched using a punching tool with a standardised surface area. The membrane is then removed, the punched pieces without membrane are weighed, and their weight is documented (m1). Then, the punched pieces are placed in organic solvent to dissolve the matrices. The backing layers are removed, washed and dried and their weight (m2) is determined. From both measured values, the weight of the polymer portion of the […] m3 is obtained as follows: m3=m1−m2 Subsequently, the concentration of phenprocoumon is determined in the solution using HPLC, and its concentration in the donor layer is calculated. The saturation concentrations of phenprocoumon in different polymer matrices determined according to this experimental approach are summarised in Table 1: […]

[2] = Solubility of phenprocoumon in process solvents; type: physicochemical
Description: Since toluene polysiloxane solution is not commercially available, BIO PSA 4201 from Dow Chemicals (polysiloxane in n-heptane) was used as starting material. The solvent was evaporated off and the rubbery polymeric residue was dissolved with enough toluene to obtain a solution with approx. 75% solids.

[3] = once absorbed by the body; cited from earlier work

Cs of phenprocoumon ([1]; in acrylate copolymer of 2-ethylhexyl acrylate, vinyl acetate and 2-hydroxyl ethyl acrylate, ethyl acetate): 6.11%
Cs of phenprocoumon ([1]; in acrylic copolymer of 2-ethylhexyl acrylate, butyl acrylate, vinyl acetate, acrylic acid, ethyl acetate): 7.26%
saturation concentration Cs of phenprocoumon ([1]; in neutral polymers (text summary of Table 1)): > 5%
Cs of phenprocoumon ([1]; in polyisobutylene, polymer dissolved in toluene): 2.8%
Cs of phenprocoumon ([1]; in polysiloxane, ethyl acetate): 0.3%
Cs of phenprocoumon ([1]; in styrene-isoprene-styrene block copolymer, polymer dissolved in toluene): 3.9%
solubility ([2]; in aromatic hydrocarbons): sufficiently soluble
solubility ([2]; in n-heptane): not in n-heptane
Compound: CCC(c1ccccc1)c1c(O)c2ccccc2oc1=O (stereo not drawn) [phenprocoumon, Phenprocoumon]
biological half-life [3]: up to 160 hours
